Assay results taken from ChEMBL document CHEMBL4265883, “Nav1.7 inhibitors for the treatment of chronic pain” (Bioorg Med Chem Lett, 2018).

What was measured:
[1] = molecular target: Sodium channel protein type 9 subunit alpha (Homo sapiens, UniProt Q15858); assay: Inhibition of human Nav1.7 expressed in HEK293 cells by electrophysiology assay; format: cell-based
[2] = species on record: Homo sapiens; assay: Selectivity ratio of IC50 for human Nav1.5 to IC50 for human Nav1.7

Chain of Sodium channel protein type 9 subunit alpha (Q15858 whole entry): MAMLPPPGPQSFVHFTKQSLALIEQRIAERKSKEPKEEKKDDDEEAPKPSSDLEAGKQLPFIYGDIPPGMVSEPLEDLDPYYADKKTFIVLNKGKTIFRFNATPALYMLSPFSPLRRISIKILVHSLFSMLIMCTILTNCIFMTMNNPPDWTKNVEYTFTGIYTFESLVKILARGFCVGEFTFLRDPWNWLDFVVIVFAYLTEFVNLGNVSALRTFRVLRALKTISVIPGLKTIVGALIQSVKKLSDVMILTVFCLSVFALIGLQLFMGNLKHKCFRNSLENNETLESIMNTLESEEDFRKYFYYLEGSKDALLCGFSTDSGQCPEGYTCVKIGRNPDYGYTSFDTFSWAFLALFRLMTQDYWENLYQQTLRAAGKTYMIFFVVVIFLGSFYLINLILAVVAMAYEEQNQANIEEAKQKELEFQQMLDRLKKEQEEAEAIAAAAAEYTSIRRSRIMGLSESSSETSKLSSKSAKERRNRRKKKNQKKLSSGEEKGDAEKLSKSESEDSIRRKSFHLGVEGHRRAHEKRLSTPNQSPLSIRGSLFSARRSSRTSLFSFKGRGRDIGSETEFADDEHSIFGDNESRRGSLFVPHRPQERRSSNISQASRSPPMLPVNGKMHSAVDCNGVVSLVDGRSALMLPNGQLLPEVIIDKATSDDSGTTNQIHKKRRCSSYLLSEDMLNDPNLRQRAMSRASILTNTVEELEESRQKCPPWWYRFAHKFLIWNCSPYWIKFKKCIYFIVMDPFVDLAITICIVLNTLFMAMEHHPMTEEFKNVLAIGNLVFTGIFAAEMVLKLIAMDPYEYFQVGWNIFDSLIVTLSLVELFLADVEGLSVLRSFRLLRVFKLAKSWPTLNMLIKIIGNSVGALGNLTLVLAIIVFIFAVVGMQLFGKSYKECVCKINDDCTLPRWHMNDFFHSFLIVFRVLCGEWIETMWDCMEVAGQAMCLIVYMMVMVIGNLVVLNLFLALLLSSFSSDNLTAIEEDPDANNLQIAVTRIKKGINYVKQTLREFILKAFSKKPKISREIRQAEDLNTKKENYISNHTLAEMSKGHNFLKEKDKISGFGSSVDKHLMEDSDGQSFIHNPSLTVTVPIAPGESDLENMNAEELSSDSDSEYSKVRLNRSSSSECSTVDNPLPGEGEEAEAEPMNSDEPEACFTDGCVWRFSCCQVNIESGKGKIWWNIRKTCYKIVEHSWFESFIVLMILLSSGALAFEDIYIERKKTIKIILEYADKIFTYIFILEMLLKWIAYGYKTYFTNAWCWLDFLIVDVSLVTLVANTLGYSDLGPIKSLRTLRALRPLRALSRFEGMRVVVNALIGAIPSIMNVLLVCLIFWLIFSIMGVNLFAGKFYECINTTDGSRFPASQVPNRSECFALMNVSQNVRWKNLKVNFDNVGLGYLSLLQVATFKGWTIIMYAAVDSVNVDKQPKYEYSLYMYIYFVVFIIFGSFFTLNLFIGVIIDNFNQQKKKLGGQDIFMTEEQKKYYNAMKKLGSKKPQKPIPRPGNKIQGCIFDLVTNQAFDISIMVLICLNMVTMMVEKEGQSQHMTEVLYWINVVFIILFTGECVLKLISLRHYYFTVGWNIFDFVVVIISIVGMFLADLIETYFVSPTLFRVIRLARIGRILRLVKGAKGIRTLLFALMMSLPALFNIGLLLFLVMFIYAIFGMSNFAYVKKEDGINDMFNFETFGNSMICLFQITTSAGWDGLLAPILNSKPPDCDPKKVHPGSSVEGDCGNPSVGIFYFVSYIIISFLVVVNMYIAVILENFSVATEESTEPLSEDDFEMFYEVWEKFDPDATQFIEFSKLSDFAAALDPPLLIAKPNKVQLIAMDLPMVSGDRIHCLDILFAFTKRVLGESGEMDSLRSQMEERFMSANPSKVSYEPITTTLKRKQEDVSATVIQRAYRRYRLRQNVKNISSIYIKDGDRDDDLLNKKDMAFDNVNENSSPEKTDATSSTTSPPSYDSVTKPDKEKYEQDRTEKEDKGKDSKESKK

Row | Structure (SMILES) | IC50 [1] | Ratio IC50 [2]
1 | Cc1nn(-c2cnc(OCC(C)C)c(Cl)c2)c2ccc(C(=O)NS(C)(=O)=O)cc12 [PF-05241328] | 31 nM | –
2 | CN[C@H](CNc1cc(F)c(S(=O)(=O)Nc2nccs2)cc1Cl)Cc1cccc(Cl)c1 | 15 nM | > 1380
3 | O=C(O)[C@@H]1C[C@@H](F)CN1C(=O)c1cc(C2CC2)c(OCC2CCN(Cc3c(Cl)cccc3Cl)CC2)cc1F | – | > 150
